As usually defined, the solubility is the dissolved amount per volume that the medium holds. Higher therefore signals a readily soluble substance.

Where only a bound is given, the exact number is not on record here.

A short description of the data set: physchem. The following applies: pH 6.
Regarding H-TSRRLTGLLDHEVQAGRQ-OH, the solubility is greater than 2000 µg/mL.
With H-KLAWRGRISSSGCPSMTSPPSPMFGMTLHT-OH the figure was greater than 2000 µg/mL; with H-SRNTGHLHPTPRFPLLRWTQEPQPLE-OH, greater than 2000 µg/mL.
On to H-DVTGPHLYSIYLHGSTDKLPYVTMGS-OH, for which the solubility is greater than 2000 µg/mL.
Substance H-VDKNGRRRLVYLVENPGG-OH returned a solubility greater than 2000 µg/mL.
The substance H-KGASLDAGWGSPRWTTTRMTSASAGRSTRA-OH yielded a solubility greater than 2000 µg/mL.
H-NILHQEELIAQKKWEIEAKMEQK-OH had a solubility greater than 2000 µg/mL.
Turning to H-TAQFAPSPGQPPALSPSYPGHRLPLQQG-OH, the solubility was greater than 2000 µg/mL.
With H-SLTEESGGAVAFFPGNLSTSSSA-OH the figure was greater than 2000 µg/mL; with H-DSAVDKGHPNRSALSLTPGLRIGPSGLFLVFLA-OH, greater than 2000 µg/mL.
H-PLMQTELHQLVPEADPEEMA-OH came in with a solubility greater than 2000 µg/mL.
H-VKQLERGEASVVDFKKNLEYAAT-OH returned a solubility greater than 2000 µg/mL.
With H-VSGLEQLESIINFEKL-OH the figure was greater than 2000 µg/mL.
For H-DHAPEFPAREMLLKYQKLLCQERYFL-OH the value was less than 2000 µg/mL.
The substance H-LLDILDTAGREEYSAMRDQYMRT-OH returned a solubility greater than 2000 µg/mL.
In turn, H-LPVFIGNIAVNHAPVSLRPGLGLPPGAPPGTVP-OH displayed a solubility greater than 2000 µg/mL.
For H-KLRTIPLSDNTIFRRICTIAKHLE-OH the value was greater than 2000 µg/mL; for H-TKDRDLLVVAHDLIWKMSPRTGDAKPS-OH, greater than 2000 µg/mL.
In turn, H-DSPAGPRRKECTMALAPNFTANNR-OH came in with a solubility greater than 2000 µg/mL.
With H-VAGLAASGLHGSAWLVPGEQPVSGPHHGKQ-OH the figure was greater than 2000 µg/mL.
In turn, H-VSWGKKVQPIDSILADWNEDIEAFEMMEKD-OH had a solubility greater than 2000 µg/mL.
The substance H-EAAFSVGATGIITDYPTALRHYLDNHG-OH showed a solubility of less than 2000 µg/mL.
Take H-DASDFLPDTQLFPHFTELLLPLDPLEGSSV-OH: the solubility was greater than 2000 µg/mL.
H-DVTYDGHPVLGSPYTVEASL-OH: the solubility was less than 2000 µg/mL.
The substance H-AAVRPEQRPAARGSRV-OH displayed a solubility greater than 2000 µg/mL.
With H-SHLASLKNNVSPVLRSHSFSDPSPKFA-OH the figure was greater than 2000 µg/mL.
Substance H-LEEVAQRSHAVRSPGSPLILEVG-OH displayed a solubility greater than 2000 µg/mL.
On to H-GPLQLPVTRKNMPLPGVVKLPPLPGS-OH, for which the solubility is greater than 2000 µg/mL.
In the case of H-SMWKGELYRQNRFASSKESAKLYGS-OH, the solubility was less than 2000 µg/mL.
For the substance H-PENDDLFMMPRIVDVTSLATEGG-OH, the solubility is greater than 2000 µg/mL.
For H-ALSLTPGLRIGPSGLFLVFLAESAVDKGHPNRS-OH the value was greater than 2000 µg/mL; for H-KMQRRNDDKSILMHGLVSLRESSRG-OH, greater than 2000 µg/mL; for H-PAAVDSVTIPPAQCYLSLLHL-OH, greater than 2000 µg/mL.
With H-NQVLASRYGIRGFSTIKIFQKGESPV-OH the figure was greater than 2000 µg/mL.
The substance H-FAKGFRESDLNSWPVAPRPLLSV-OH displayed a solubility greater than 2000 µg/mL.
With H-DHAPEFPAREMLLKYQKLLSQER-OH the figure was greater than 2000 µg/mL; with H-DATFSDGSLGQLVKNTSATYALS-OH, greater than 2000 µg/mL; with H-GRMSPSQFARVPGYVGSPLAAMNPK-OH, greater than 2000 µg/mL.
For H-PRVDLQGAELWKRLHEIGTEMIITK-OH the value was greater than 2000 µg/mL.
With H-YLLPKTAVVLRCPALRVRKP-OH the figure was greater than 2000 µg/mL; with H-LNYLRTAKFLEMYGVDLHPVYG-OH, less than 2000 µg/mL.
As for H-TKRQVILLHTELERFLEYLPLRF-OH, the solubility is greater than 2000 µg/mL.
For H-GLTRISIQRAQPLPPCLPSFRPPTALQGLS-OH the value was greater than 2000 µg/mL; for H-LSPREEFLRLCKKIMMRSIQ-OH, greater than 2000 µg/mL.
Regarding H-AASAAAFPSQRTSWEFLQSLVSIKQEK-OH, the solubility is greater than 2000 µg/mL.
On to H-HLLQKQTSIQSPSLYGNSSPPLNK-OH, for which the solubility is greater than 2000 µg/mL.
For H-SHQIHSYQLYTHPLLHPWDHRD-OH the value was greater than 2000 µg/mL; for H-TNGPEKNSSSFPSSVDYAASGPRKL-OH, greater than 2000 µg/mL.
With H-LVGQLKRVPRTGRVYRNVQRPESVS-OH the figure was greater than 2000 µg/mL; with H-LMSNLAFADFCMRMYL-OH, less than 2000 µg/mL; with H-GTKALQLHSIAGRWPRMEPWVVESMSLGVP-OH, greater than 2000 µg/mL.
For H-AAAFPSQRTSWEFLQSLVSIKQEKPA-OH the value was less than 2000 µg/mL; for H-VARNYLREAVSHNASLEVAILRD-OH, less than 2000 µg/mL.
Substance H-TISLLLIFYNTKEIARTEEHQE-OH returned a solubility of less than 2000 µg/mL.
For H-WDGPPENDMLLKEICGSLIP-OH the value was greater than 2000 µg/mL; for H-KGEKNGMTFSSTKDYVNNV-OH, greater than 2000 µg/mL.
With H-VQLSIQDVIRRARLSTVPTAQRVALRSGWI-OH the figure was greater than 2000 µg/mL.
With H-YLSHTLGAASSFMRPTVPPPQF-OH the figure was greater than 2000 µg/mL; with H-KKNITNLSRLVVRPDTDAVY-OH, greater than 2000 µg/mL; with H-DRSVLAKKLKFVTLVFRHGDRSPID-OH, greater than 2000 µg/mL.
For the substance H-DDNGNILDPDKTSTIALFKAHEV-OH, the solubility is greater than 2000 µg/mL.
For H-GSGSQMPAWRTRGAISASSTQKTPTTRL-OH the value was greater than 2000 µg/mL; for H-VTSPKASPVTFPAAAFPTASPANKD-OH, greater than 2000 µg/mL; for H-SQSSTPAMLFPAPAAHRTLTYLSQ-OH, greater than 2000 µg/mL.
With H-NNSKKKWFLFQDSKKIQVEQPQ-OH the figure was greater than 2000 µg/mL.
In turn, H-EDSKYQNLLPFFVGHNMLLVSEE-OH gave a solubility of less than 2000 µg/mL.
With H-AVGATKVPRNQDWLGVSRQL-OH the figure was greater than 2000 µg/mL.
For H-SKRGVGAKTLLLPDPFLFWPCLEGTRRSL-OH the value was greater than 2000 µg/mL; for H-PAPPPAVPKEHPAPPAPPPASAPTP-OH, greater than 2000 µg/mL.
For H-GSGALGAVGATKVPRNQDWL-OH, the solubility is greater than 2000 µg/mL.
For H-SGSPPLRVSVGDFSQEFSPIQEAQQD-OH the value was greater than 2000 µg/mL; for H-STLPVISDSTTKRRWSALVIGL-OH, greater than 2000 µg/mL; for H-DLSYVSDQNGGVPDQILLHLRPTED-OH, greater than 2000 µg/mL.
With H-LPDEVSGLEQLESIINFEKLTEWTSSNVME-OH the figure was greater than 2000 µg/mL; with H-LNTGLFRIKFKEPLENLI-OH, greater than 2000 µg/mL.
For H-TTVTHERKQAKVVNPPIQEVGKGARK-OH, the solubility was greater than 2000 µg/mL.
Consider H-EYWKVLDGELEVAPEYPQSTARDWL-OH, for which the solubility is less than 2000 µg/mL.
H-RQRRGRLGLPGEAGLEGFEPSDALGPD-OH: the solubility is greater than 2000 µg/mL.
With H-MAGPKGFQYRALYPFRRER-OH the figure was greater than 2000 µg/mL; with H-SPIKLVQKVASKIPFPDRITEESV-OH, greater than 2000 µg/mL; with H-RPAGRTQLLWTPAAPTAMAEVGPGHTP-OH, greater than 2000 µg/mL.
For H-DPLMTCSEPERLTEILFQRAELE-OH the value was less than 2000 µg/mL; for H-DGVSEEFWLVDLLPSTHYT-OH, less than 2000 µg/mL; for H-RARQILIASHLPFYELRHNQVES-OH, greater than 2000 µg/mL.
For H-GSYLVALGAHTGEES-OH the value was greater than 2000 µg/mL; for H-SSELTAVNFPSFHVTSLKLMVSPTS-OH, greater than 2000 µg/mL.
In turn, H-SLRNNMFEISDRFIGIYKTYNITK-OH gave a solubility greater than 2000 µg/mL.
Take H-SAVSAASIPAEHINQATNGGGS-OH: the solubility was greater than 2000 µg/mL.
